Source: patent US4754059A, “Omega cycloalkyl prostaglandins” (G. D. Searle & Co., priority 1984, dated 1988)

Tests used:
[1] = Diarrheogenic activity in rats; assay type: in vivo, Charles River rats
Description: Diarrhea is an undesirable side effect commonly associated with antisecretory and cytoprotective prostaglandins.
Groups of six adult male Charles River rats, weight range 180 to 200 grams, are fasted for 24 hours prior to administering the test substance. The prostaglandin to be tested is administered intragastrically in iso-osmotic phosphate buffer at a volume of 10 ml/kg at doses ranging from 100 to 3000 microgram/kg. Control animals receive only the vehicle. The rats are placed in individual wire mesh cages and the trays lined with brown paper. Diarrhea is assessed at hourly intervals on an all or none basis for up to eight hours after administration of the prostaglandin. Diarrhea is defined as any loose or watery stool. ED50 values are assessed for each hourly diarrheogenic response.

gastric secretions = assay: Dog gastric antisecretory activity (histamine-stimulated, Thomas-type gastric cannula); assay type: in vivo, beagle dogs; details: for ED50: Canis lupus familiaris, po, histamine stimulation
Description: The standard test used to detect gastric antisecretory activity is described as follows.
Adult female beagle dogs weighing 6-11 kg. are prepared with whole stomach simple Thomas-type gastric cannulas.
Following full recovery from the surgical implantation of the gastric cannula, the dogs are trained to stand quietly, though fully conscious, in Pavlov-type dog restraining slings and are accustomed to intravenous histamine infusion.
Experiments are initiated by depriving dogs of food, but not water, for 18 hours. With an initial infusion of 0.15M sodium chloride, at a constant rate of 6.5 ml/hr, gastric secretions collected in plastic bottles affixed to the cannula, are taken at 15 minute intervals and measured for volume to the nearest 0.1 ml. Following a 30-45 minute basal secretion period, the collection bottles are removed, dosing plugs inserted, and compound administered. A 3.0 ml saline wash follows immediately.
After the end of a 30 minute drug absorption period the stomachs are emptied, collection bottles again attached, and the collections resumed at 30 minute intervals. Simultaneously, the saline infusion is replaced with a continuous intravenous infusion of histamine dihydrochloride in saline at 15 ug/kg/hr for four hours. Gastric samples are analysed for pH and titratable acidity determinations.
An analysis of the data for each measured or derived variable compares observations recorded following treatment with variables obtained for the same group of animals receiving histamine stimulation alone. Three parameters, gastric juice volume (ml/30 min), acid concentration (mEq/L), and total acid output (mEq/30 min) are analyzed individually. The data thus obtained are analyzed using interval-by-interval paired Student's t-test or two-way analysis of variance to achieve an indication of potency and duration of action. Percentage inhibition is calculated using pooled mean values for the four hour treatment period. Duration of activity is defined as the length of time of significant inhibition.

[2] = system: lower esophageal sphincter; assay: Contraction of the lower esophageal sphincter; details: no method given
[3] = intragastric administration, dog

| Structure (SMILES) | diarrheogenic properties (in words) [1] | antisecretory activity (in words) (gastric secretions) | ED50 (gastric secretions; [3]) [µg/kg] | property of contracting the lower esophageal sphincter [2] | Dog antisecretory activity (in words) (gastric secretions; intragastric administration, dog, doses 0.3 and 1.0) |
| --- | --- | --- | --- | --- | --- |
| COC(=O)CC/C=C\CC[C@H]1C(=O)C[C@@H](O)[C@@H]1/C=C/CC(C)(O)CCC1CCC1 (relative stereo) [Example 3] | low | potent |  |  |  |
| COC(=O)CC/C=C\CC[C@H]1C(=O)C[C@@H](O)[C@@H]1/C=C/CC(C)(O)CCC1(C)CC1 (relative stereo) [Example 7, methyl 7-[3α-hydroxy-2β-4-hydroxy-4-methyl-6-(1-methylcyclopropyl)-1-trans-hexenyl-5-oxocyclopentane]-1α-hept-4-cis-enoate] |  |  | 0.3 |  |  |
| COC(=O)CC/C=C\CC[C@H]1C(=O)C[C@@H](O)[C@@H]1/C=C/CC(C)(O)CCC1CCCC1 (relative stereo) [Example 2] | low | potent | 0.3 | contracting the lower esophageal sphincter |  |
| COC(=O)CC/C=C\CC[C@H]1C(=O)C[C@@H](O)[C@@H]1/C=C/CC(C)(O)CCC1CC1 (relative stereo) [Example 1] |  |  | 0.2 |  |  |
| COC(=O)CCC/C=C\C[C@H]1C(=O)C[C@@H](O)[C@@H]1/C=C/CC(C)(O)CCC1CCCC1 (relative stereo) [Compound II, reference compound] |  |  |  |  | Inactive at 0.3 and 1.0 |
